# Results published in PubChem BioAssay AID2060894 (Molecular Pharmacology Branch, DTP, NCI, 2025).
# System: K12877-001-R-J1-PDC complex spheroid viability
# Assay: Anticancer human tumor K12877-001-R-J1-PDC patient-derived lung adenocarcinoma cell line growth inhibition [RAS]
# Conditions: for viability, T/C: stronger effect = lower value
# Method in brief: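 Tumour cells grown as complex spheroids with HUVEC endothelial cells and mesenchymal stem cells, treated with RAS pathway inhibitor combinations. Each agent spans half-log steps from near clinical Cmax, or 10 microM where Cmax is unknown.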
# 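Further: spheroids exposed to agents for one week before readout.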
# 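Wherever viability, T/C is given: tumour cells co-cultured with HUVEC and mesenchymal stem cells in spheroids.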
smiles,measurement,setting,value
CCC(CC)c1cc(NC2CCC(N)C2)n2nccc2n1 (centres undefined) + C=CC(=O)N1CCN(c2nc(OCC3CCCN3C)nc3c(F)c(-c4nc(N)cc(C)c4C(F)(F)F)c(Cl)cc23)C(C)C1,IC50,"curve of first compound, second compound 0.00316 µM",1.69 µM
same,IC50,"curve of first compound, second compound 0.01 µM",1.43 µM
same,IC50,"curve of first compound, second compound 0.0316 µM",1.58 µM
same,IC50,"curve of first compound, second compound 0.1 µM",1.4 µM
same,IC50,"curve of first compound, second compound 0.316 µM",1.48 µM
same,IC50,"curve of first compound, second compound 1 µM",1.44 µM
same,"viability, T/C","second compound 0.00316 µM, first compound 0.0316 µM",97%
same,"viability, T/C","second compound 0.00316 µM, first compound 0.1 µM",94.7%
same,"viability, T/C","second compound 0.00316 µM, first compound 0.316 µM",98%
same,"viability, T/C","second compound 0.00316 µM, first compound 1 µM",89.6%
same,"viability, T/C","second compound 0.00316 µM, first compound 3.16 µM",2.45%
same,"viability, T/C","second compound 0.00316 µM, first compound 10 µM",0.94%
same,"viability, T/C","second compound 0.01 µM, first compound 0.0316 µM",91.2%
same,"viability, T/C","second compound 0.01 µM, first compound 0.1 µM",99.4%
same,"viability, T/C","second compound 0.01 µM, first compound 0.316 µM",93.2%
same,"viability, T/C","second compound 0.01 µM, first compound 1 µM",71.3%
same,"viability, T/C","second compound 0.01 µM, first compound 3.16 µM",2.11%
same,"viability, T/C","second compound 0.01 µM, first compound 10 µM",0.91%
same,"viability, T/C","second compound 0.0316 µM, first compound 0.0316 µM",99.3%
same,"viability, T/C","second compound 0.0316 µM, first compound 0.1 µM",95.7%
same,"viability, T/C","second compound 0.0316 µM, first compound 0.316 µM",86.2%
same,"viability, T/C","second compound 0.0316 µM, first compound 1 µM",81.5%
same,"viability, T/C","second compound 0.0316 µM, first compound 3.16 µM",2.25%
same,"viability, T/C","second compound 0.0316 µM, first compound 10 µM",1.53%
same,"viability, T/C","second compound 0.1 µM, first compound 0.0316 µM",85.2%
same,"viability, T/C","second compound 0.1 µM, first compound 0.1 µM",78.3%
same,"viability, T/C","second compound 0.1 µM, first compound 0.316 µM",83.4%
same,"viability, T/C","second compound 0.1 µM, first compound 1 µM",70%
same,"viability, T/C","second compound 0.1 µM, first compound 3.16 µM",1.91%
same,"viability, T/C","second compound 0.1 µM, first compound 10 µM",0.93%
same,"viability, T/C","second compound 0.316 µM, first compound 0.0316 µM",88.3%
same,"viability, T/C","second compound 0.316 µM, first compound 0.1 µM",91.9%
same,"viability, T/C","second compound 0.316 µM, first compound 0.316 µM",86.3%
same,"viability, T/C","second compound 0.316 µM, first compound 1 µM",74.7%
same,"viability, T/C","second compound 0.316 µM, first compound 3.16 µM",2.48%
same,"viability, T/C","second compound 0.316 µM, first compound 10 µM",0.97%
same,"viability, T/C","second compound 1 µM, first compound 0.0316 µM",86.2%
same,"viability, T/C","second compound 1 µM, first compound 0.1 µM",80.6%
same,"viability, T/C","second compound 1 µM, first compound 0.316 µM",94.8%
same,"viability, T/C","second compound 1 µM, first compound 1 µM",72.5%
same,"viability, T/C","second compound 1 µM, first compound 3.16 µM",1.96%
same,"viability, T/C","second compound 1 µM, first compound 10 µM",1.06%
CC(=O)OC12COC1CC(O)C1(C)C(=O)C(O)C3=C(C)C(OC(=O)C(O)C(NC(=O)OC(C)(C)C)c4ccccc4)CC(O)(C(OC(=O)c4ccccc4)C21)C3(C)C (centres undefined) + CCn1c(-c2cc(N3CCN(C)CC3)cnc2C(C)OC)c2c3cc(ccc31)-c1csc(n1)CC(NC(=O)C1CC1C)C(=O)N1CCCC(N1)C(=O)OCC(C)(C)C2,IC50,"curve of first compound, second compound 0.000949 µM",< 0.0316 µM
same,IC50,"curve of first compound, second compound 0.003 µM",< 0.0316 µM
same,IC50,"curve of first compound, second compound 0.00949 µM",< 0.0316 µM
same,IC50,"curve of first compound, second compound 0.03 µM",< 0.0316 µM
same,IC50,"curve of first compound, second compound 0.0949 µM",< 0.0316 µM
same,IC50,"curve of first compound, second compound 0.3 µM",< 0.0316 µM
same,"viability, T/C","second compound 0.000949 µM, first compound 0.0316 µM",7.37%
same,"viability, T/C","second compound 0.000949 µM, first compound 0.1 µM",5.79%
same,"viability, T/C","second compound 0.000949 µM, first compound 0.316 µM",4.69%
same,"viability, T/C","second compound 0.000949 µM, first compound 1 µM",5.58%
same,"viability, T/C","second compound 0.000949 µM, first compound 3.16 µM",7.53%
same,"viability, T/C","second compound 0.000949 µM, first compound 10 µM",12.1%
same,"viability, T/C","second compound 0.003 µM, first compound 0.0316 µM",5.77%
same,"viability, T/C","second compound 0.003 µM, first compound 0.1 µM",4.36%
same,"viability, T/C","second compound 0.003 µM, first compound 0.316 µM",3.51%
same,"viability, T/C","second compound 0.003 µM, first compound 1 µM",4.48%
same,"viability, T/C","second compound 0.003 µM, first compound 3.16 µM",5.26%
same,"viability, T/C","second compound 0.003 µM, first compound 10 µM",14%
same,"viability, T/C","second compound 0.00949 µM, first compound 0.0316 µM",5.17%
same,"viability, T/C","second compound 0.00949 µM, first compound 0.1 µM",4.24%
same,"viability, T/C","second compound 0.00949 µM, first compound 0.316 µM",3.37%
same,"viability, T/C","second compound 0.00949 µM, first compound 1 µM",3.68%
same,"viability, T/C","second compound 0.00949 µM, first compound 3.16 µM",4.57%
same,"viability, T/C","second compound 0.00949 µM, first compound 10 µM",12.9%
same,"viability, T/C","second compound 0.03 µM, first compound 0.0316 µM",4.63%
same,"viability, T/C","second compound 0.03 µM, first compound 0.1 µM",2.99%
same,"viability, T/C","second compound 0.03 µM, first compound 0.316 µM",3.02%
same,"viability, T/C","second compound 0.03 µM, first compound 1 µM",3.05%
same,"viability, T/C","second compound 0.03 µM, first compound 3.16 µM",4.55%
same,"viability, T/C","second compound 0.03 µM, first compound 10 µM",10.7%
same,"viability, T/C","second compound 0.0949 µM, first compound 0.0316 µM",4.19%
same,"viability, T/C","second compound 0.0949 µM, first compound 0.1 µM",2.73%
same,"viability, T/C","second compound 0.0949 µM, first compound 0.316 µM",2.45%
same,"viability, T/C","second compound 0.0949 µM, first compound 1 µM",2.46%
same,"viability, T/C","second compound 0.0949 µM, first compound 3.16 µM",3.56%
same,"viability, T/C","second compound 0.0949 µM, first compound 10 µM",9.41%
same,"viability, T/C","second compound 0.3 µM, first compound 0.0316 µM",3.57%
same,"viability, T/C","second compound 0.3 µM, first compound 0.1 µM",2.99%
same,"viability, T/C","second compound 0.3 µM, first compound 0.316 µM",2.53%
same,"viability, T/C","second compound 0.3 µM, first compound 1 µM",2.8%
same,"viability, T/C","second compound 0.3 µM, first compound 3.16 µM",4.22%
same,"viability, T/C","second compound 0.3 µM, first compound 10 µM",9.04%
C=CC(=O)N1CCN(c2nc(OCC3CCCN3C)nc3c(F)c(-c4nc(N)cc(C)c4C(F)(F)F)c(Cl)cc23)C(C)C1 (centres undefined),"viability, T/C",compound 0.00316 µM,99.2% [middle of 12 runs]
same,"viability, T/C",compound 0.1 µM,87.8% [middle of 12 runs]
same,"viability, T/C",compound 0.316 µM,86% [middle of 12 runs]
same,IC50,"compound alone, run of 09/09/2024",> 1 µM
same,IC50,curve of compound,> 1 µM
